Results as given in patent publication US20230085307A1, “PYRIDAZINONE COMPOUND AND HERBICIDE” (NISSAN CHEMICAL CORPORATION, priority 2019, published 2023).

Experiments:
late watergrass [1] = test: Test Example 1: herbicidal activity, application before weed generation under submerged conditions (Table 16, symbol A); type: in vivo, late watergrass (Echinochloa oryzicola); details: amount of applied herbicide 320 g/ha
Procedure, shortened: (§1)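 Alluvial soil was flooded to 4 cm depth, weed seeds were sown mixed and 2.5-leaf rice seedlings were transplanted. On sowing day, the compound's emulsion, diluted in water to a set dose, was applied to the water surface. Plants grew at 25–30 °C and were scored 0–5 after three weeks.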

Japanese bulrush [2] = test: Test Example 1: herbicidal activity, application before weed generation under submerged conditions (Table 16, symbol B); type: in vivo, Japanese bulrush (Schoenoplectus juncoides); details: amount of applied herbicide 320 g/ha
Procedure, shortened: as §1

oval-leafed pondweed [3] = test: Test Example 1: herbicidal activity, application before weed generation under submerged conditions (Table 16, symbol C); type: in vivo, oval-leafed pondweed (Monochoria vaginalis); details: amount of applied herbicide 320 g/ha
Procedure, shortened: as §1

late watergrass [4] = test: Test Example 2: herbicidal activity, application during weed generation under submerged conditions (Table 17, symbol A); type: in vivo, late watergrass (Echinochloa oryzicola); details: AAH 320 g/ha; application during weed generation, submerged conditions
Procedure, shortened: (§2)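 Alluvial soil in Wagner pots was flooded to 4 cm depth and sown with the three weeds together; pots were kept in a greenhouse at 25° C. to 30° C. At the one to two leaf stage, an emulsion formulation diluted in water to a set rate went onto the water surface; scored three weeks later.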

Japanese bulrush [5] = test: Test Example 2: herbicidal activity, application during weed generation under submerged conditions (Table 17, symbol B); type: in vivo, Japanese bulrush (Schoenoplectus juncoides); details: AAH 320 g/ha; application during weed generation, submerged conditions
Procedure, shortened: as §2

oval-leafed pondweed [6] = test: Test Example 2: herbicidal activity, application during weed generation under submerged conditions (Table 17, symbol C); type: in vivo, oval-leafed pondweed (Monochoria vaginalis); details: AAH 320 g/ha; application during weed generation, submerged conditions
Procedure, shortened: as §2

barnyard grass [7] = test: Test Example 3: herbicidal effect by foliage application, Wagner pot (Table 18, symbol H); type: in vivo, barnyard grass (Echinochloa crus-galli); details: for herbicidal effect on barnyard grass (H): 320 g/ha
Procedure, shortened: (§3)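 Plants were sown in alluvial soil held under 0.1–0.5 cm standing water and grown 14 days in a greenhouse at 25–30 °C. An emulsifiable formulation, water-diluted to the set dose, was then sprayed onto the foliage, and effects were scored three weeks later using previously defined criteria.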

Chinese sprangletop = test: Test Example 3: herbicidal effect by foliage application, Wagner pot (Table 18, symbol D); type: in vivo, chinese sprangletop (Leptochloa chinensis); details: for herbicidal effect on Chinese sprangletop (D): 320 g/ha
Procedure, shortened: as §3

rice flat sedge = test: Test Example 3: herbicidal effect by foliage application, Wagner pot (Table 18, symbol E); type: in vivo, rice flat sedge (Cyperus iria); details: for herbicidal effect on rice flat sedge (E): 320 g/ha
Procedure, shortened: as §3

southern crabgrass [8] = test: Test Example 4: herbicidal effect by soil treatment (Table 19, symbol F); type: in vivo, southern crabgrass (Digitaria ciliaris); details: amount of applied herbicide 320 g/ha
Procedure, shortened: (§4)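 Scoring uses the grading scale of an earlier test, three weeks post-application. Treatment consists of spraying a diluted emulsion formulation across the surface of sterilized diluvial soil in which seeds are buried near 1.5 cm deep; boxes are kept in a greenhouse between 25° C. and 30° C.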

green foxtail [9] = test: Test Example 4: herbicidal effect by soil treatment (Table 19, symbol G); type: in vivo, green foxtail (Setaria viridis); details: amount of applied herbicide 320 g/ha
Procedure, shortened: as §4

barnyard grass [10] = test: Test Example 4: herbicidal effect by soil treatment (Table 19, symbol H); type: in vivo, barnyard grass (Echinochloa crus-galli); details: amount of applied herbicide 320 g/ha
Procedure, shortened: as §4

velvetleaf [11] = test: Test Example 4: herbicidal effect by soil treatment (Table 19, symbol M); type: in vivo, velvetleaf (Abutilon theophrasti); details: amount of applied herbicide 320 g/ha
Procedure, shortened: as §4

redroot pigweed [12] = test: Test Example 4: herbicidal effect by soil treatment (Table 19, symbol N); type: in vivo, redroot pigweed (Amaranthus retroflexus); details: amount of applied herbicide 320 g/ha
Procedure, shortened: as §4

lambsquarters [13] = test: Test Example 4: herbicidal effect by soil treatment (Table 19, symbol O); type: in vivo, lambsquarters (Chenopodium album); details: amount of applied herbicide 320 g/ha
Procedure, shortened: as §4

southern crabgrass [14] = test: Test Example 5: herbicidal effect by foliage application, plastic box (Table 20, symbol F); type: in vivo, southern crabgrass (Digitaria ciliaris); details: foliage application, 320 g/ha, three weeks after application
Procedure, shortened: (§5)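 Post-emergence foliar test in sterilized diluvial soil. Compound applied as water-diluted emulsion at a predetermined rate to 14-day-old plants; evaluation at three weeks.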

green foxtail [15] = test: Test Example 5: herbicidal effect by foliage application, plastic box (Table 20, symbol G); type: in vivo, green foxtail (Setaria viridis); details: foliage application, 320 g/ha, three weeks after application
Procedure, shortened: as §5

velvetleaf [16] = test: Test Example 5: herbicidal effect by foliage application, plastic box (Table 20, symbol M); type: in vivo, velvetleaf (Abutilon theophrasti); details: foliage application, 320 g/ha, three weeks after application
Procedure, shortened: as §5

redroot pigweed [17] = test: Test Example 5: herbicidal effect by foliage application, plastic box (Table 20, symbol N); type: in vivo, redroot pigweed (Amaranthus retroflexus); details: foliage application, 320 g/ha, three weeks after application
Procedure, shortened: as §5

lambsquarters [18] = test: Test Example 5: herbicidal effect by foliage application, plastic box (Table 20, symbol O); type: in vivo, lambsquarters (Chenopodium album); details: foliage application, 320 g/ha, three weeks after application
Procedure, shortened: as §5

barnyard grass [19] = test: Test Example 5: herbicidal effect by foliage application, plastic box (Table 20, symbol H); type: in vivo, barnyard grass (Echinochloa crus-galli); details: foliage application, 320 g/ha, three weeks after application
Procedure, shortened: as §5

wild oat = test: Test Example 5: herbicidal effect by foliage application, plastic box (Table 20, symbol I); type: in vivo, wild oat (Avena fatua); details: foliage application, 320 g/ha, three weeks after application
Procedure, shortened: as §5

blackgrass = test: Test Example 5: herbicidal effect by foliage application, plastic box (Table 20, symbol J); type: in vivo, blackgrass (Alopecurus myosuroides); details: foliage application, 320 g/ha, three weeks after application
Procedure, shortened: as §5

Italian ryegrass = test: Test Example 5: herbicidal effect by foliage application, plastic box (Table 20, symbol K); type: in vivo, Italian ryegrass (Lolium multiflorum); details: foliage application, 320 g/ha, three weeks after application
Procedure, shortened: as §5

windgrass = test: Test Example 5: herbicidal effect by foliage application, plastic box (Table 20, symbol L); type: in vivo, windgrass (Apera spica-venti); details: foliage application, 320 g/ha, three weeks after application
Procedure, shortened: as §5

persian speedwell = test: Test Example 5: herbicidal effect by foliage application, plastic box (Table 20, symbol R); type: in vivo, Persian speedwell (Veronica persica); details: foliage application, 320 g/ha, three weeks after application
Procedure, shortened: as §5

[20] = amount of applied herbicide 320 g/ha

SMILES	Herbicidal effect, A: late watergrass (late watergrass [1])	Herbicidal effect, B: Japanese bulrush (Japanese bulrush [2])	Herbicidal effect, C: oval-leafed pondweed (oval-leafed pondweed [3])	herbicidal effect rating, A: late watergrass (late watergrass [4])	herbicidal effect rating, B: Japanese bulrush (Japanese bulrush [5])	herbicidal effect rating, C: oval-leafed pondweed (oval-leafed pondweed [6])	herbicidal effect on barnyard grass (H) (barnyard grass [7])	herbicidal effect on Chinese sprangletop (D) (Chinese sprangletop)	herbicidal effect on rice flat sedge (E) (rice flat sedge)	herbicidal effect on southern crabgrass (F) (southern crabgrass [14])	herbicidal effect on green foxtail (G) (green foxtail [15])	herbicidal effect on barnyard grass (H) (barnyard grass [19])	herbicidal effect on wild oat (I) (wild oat)	herbicidal effect on blackgrass (J) (blackgrass)	herbicidal effect on Italian ryegrass (K) (Italian ryegrass)	herbicidal effect on windgrass (L) (windgrass)	herbicidal effect on velvetleaf (M) (velvetleaf [16])	herbicidal effect on lambsquarters (O) (lambsquarters [18])	herbicidal effect on persian speedwell (R) (persian speedwell)	further results
COc1ccc2sc(-c3ccc(Cl)cc3)c(-c3c(O)c(C)nn(C)c3=O)c2c1 [2-450]	2 (Herbicidal rate of 20% or more and less than 40%)	3 (Herbicidal rate of 40% or more and less than 70%)	0 (Herbicidal rate of 5% or less (almost no effect))	3 (Herbicidal rate of 40% or more and less than 70%)	2 (Herbicidal rate of 20% or more and less than 40%)	0 (Herbicidal rate of 5% or less (almost no effect))	–	–	–	–	–	–	–	–	–	–	–	–	–	herbicidal effect on H: barnyard grass (barnyard grass [7]; [20]): 3 (Herbicidal rate of 40% or more and less than 70%); herbicidal effect on D: Chinese sprangletop (Chinese sprangletop; [20]): 0 (Herbicidal rate of 5% or less (almost no effect)); herbicidal effect on E: rice flat sedge (rice flat sedge; [20]): 5 (Herbicidal rate of 90% or more (almost completely withered)); herbicidal effect, F: southern crabgrass (southern crabgrass [8]): 0 (Herbicidal rate of 5% or less (almost no effect)); herbicidal effect, G: green foxtail (green foxtail [9]): 0 (Herbicidal rate of 5% or less (almost no effect)); herbicidal effect, H: barnyard grass (barnyard grass [10]): 0 (Herbicidal rate of 5% or less (almost no effect)); herbicidal effect, M: velvetleaf (velvetleaf [11]): 0 (Herbicidal rate of 5% or less (almost no effect)); herbicidal effect, N: redroot pigweed (redroot pigweed [12]): 3 (Herbicidal rate of 40% or more and less than 70%); herbicidal effect, O: lambsquarters (lambsquarters [13]): 2 (Herbicidal rate of 20% or more and less than 40%); F: southern crabgrass, herbicidal effect grade (southern crabgrass [14]): 0 (Herbicidal rate of 5% or less (almost no effect)); G: green foxtail, herbicidal effect grade (green foxtail [15]): 0 (Herbicidal rate of 5% or less (almost no effect)); M: velvetleaf, herbicidal effect grade (velvetleaf [16]): 5 (Herbicidal rate of 90% or more (almost completely withered)); N: redroot pigweed, herbicidal effect grade (redroot pigweed [17]): 5 (Herbicidal rate of 90% or more (almost completely withered)); O: lambsquarters, herbicidal effect grade (lambsquarters [18]): 5 (Herbicidal rate of 90% or more (almost completely withered))
CCCC(=O)Oc1c(C)nn(C)c(=O)c1-c1c(-c2ccccc2OC)sc2cc(C)c(C)cc12 [5-091]	3 (Herbicidal rate of 40% or more and less than 70%)	3 (Herbicidal rate of 40% or more and less than 70%)	3 (Herbicidal rate of 40% or more and less than 70%)	3 (Herbicidal rate of 40% or more and less than 70%)	2 (Herbicidal rate of 20% or more and less than 40%)	3 (Herbicidal rate of 40% or more and less than 70%)	4 (Herbicidal rate of 70% or more and less than 90%)	4 (Herbicidal rate of 70% or more and less than 90%)	3 (Herbicidal rate of 40% or more and less than 70%)	2 (Herbicidal rate of 20% or more and less than 40%)	3 (Herbicidal rate of 40% or more and less than 70%)	3 (Herbicidal rate of 40% or more and less than 70%)	0 (Herbicidal rate of 5% or less (almost no effect))	4 (Herbicidal rate of 70% or more and less than 90%)	4 (Herbicidal rate of 70% or more and less than 90%)	4 (Herbicidal rate of 70% or more and less than 90%)	4 (Herbicidal rate of 70% or more and less than 90%)	3 (Herbicidal rate of 40% or more and less than 70%)	3 (Herbicidal rate of 40% or more and less than 70%)	–
CCCC(=O)Oc1c(C)nn(C)c(=O)c1-c1c(-c2ccc(F)cc2OC)sc2cc(C)c(C)cc12 [5-102]	4 (Herbicidal rate of 70% or more and less than 90%)	3 (Herbicidal rate of 40% or more and less than 70%)	2 (Herbicidal rate of 20% or more and less than 40%)	3 (Herbicidal rate of 40% or more and less than 70%)	3 (Herbicidal rate of 40% or more and less than 70%)	2 (Herbicidal rate of 20% or more and less than 40%)	4 (Herbicidal rate of 70% or more and less than 90%)	4 (Herbicidal rate of 70% or more and less than 90%)	3 (Herbicidal rate of 40% or more and less than 70%)	1 (Herbicidal rate of 5% or more and less than 20%)	0 (Herbicidal rate of 5% or less (almost no effect))	1 (Herbicidal rate of 5% or more and less than 20%)	0 (Herbicidal rate of 5% or less (almost no effect))	3 (Herbicidal rate of 40% or more and less than 70%)	3 (Herbicidal rate of 40% or more and less than 70%)	2 (Herbicidal rate of 20% or more and less than 40%)	3 (Herbicidal rate of 40% or more and less than 70%)	3 (Herbicidal rate of 40% or more and less than 70%)	3 (Herbicidal rate of 40% or more and less than 70%)	–
Cc1nn(C)c(=O)c(-c2c(-c3ccc(OC(F)(F)F)cc3)sc3cc(Cl)c(Cl)cc23)c1O [5-107]	3 (Herbicidal rate of 40% or more and less than 70%)	0 (Herbicidal rate of 5% or less (almost no effect))	0 (Herbicidal rate of 5% or less (almost no effect))	3 (Herbicidal rate of 40% or more and less than 70%)	3 (Herbicidal rate of 40% or more and less than 70%)	3 (Herbicidal rate of 40% or more and less than 70%)	3 (Herbicidal rate of 40% or more and less than 70%)	0 (Herbicidal rate of 5% or less (almost no effect))	0 (Herbicidal rate of 5% or less (almost no effect))	2 (Herbicidal rate of 20% or more and less than 40%)	2 (Herbicidal rate of 20% or more and less than 40%)	3 (Herbicidal rate of 40% or more and less than 70%)	–	–	–	–	3 (Herbicidal rate of 40% or more and less than 70%)	4 (Herbicidal rate of 70% or more and less than 90%)	–	–
